Source: US10301355B2, “Method of using pharmaceutical compositions comprising selective peptide-based agonists of melanocortin 1 receptor” (University of Cincinnati, priority 2012, dated 2019)
Entries after “also recorded” stand apart in the source; their conditions may differ.

Tests used:
[1] = tested on: human melanocytes; experiment: Potency in human melanocytes; format: cell-based
[2] = tested on: mouse MCRs; settings: cited from earlier work
[3] = target: T1, hMC5R (Homo sapiens, UniProt P33032); experiment: cAMP stimulation in heterologous cells expressing hMC5R; format: cell-based
T1 construct: expressed in transfected cells
Procedure: (§1) Receptor selectivity of peptide agonists for hMC1R was determined by stimulation of cAMP in heterologous cells expressing different human melanocortin receptors (MC1R, MC3R, MC4R, and MC5R).

[4] = target: T2, hMC3R (Homo sapiens, UniProt P41968); experiment: cAMP stimulation in heterologous cells expressing hMC3R; format: cell-based
T2 construct: expressed in transfected cells
Procedure: as §1

[5] = target: T3, hMC4R (Homo sapiens, UniProt P32245); experiment: cAMP stimulation in heterologous cells expressing hMC4R; format: cell-based
T3 construct: expressed in transfected cells
Procedure: as §1

[6] = target: T4, MC1R (Homo sapiens, UniProt Q01726); experiment: Stimulation of cAMP formation in cultured human melanocytes; format: cell-based; parameters: endogenous in cells; host or cells: cultured human melanocytes
Procedure: Peptides were tested on cultured human melanocytes for their capacity to activate MC1R, as measured by stimulating cAMP formation. After 45 minutes of treatment with different concentrations of peptides, cAMP levels were measured using a I^125-labeled radioimmunoassay kit.
(§2) Peptides were tested as described in Example 4 above on cultured human melanocytes for their capacity to activate MC1R, as measured by stimulating cAMP formation, and for their capacity for stimulating tyrosinase activity, the rate-limiting enzyme for melanin synthesis. The tested peptides were synthesized according to the formula: Ar(CH2)mX^1—X^2—CO—X^3—X^4—X^5-(Trp)n-NX^6R wherein X^1 and X^2 are absent, X^3 is His, X^5 is Arg, and X^6 is H. X^4 amino acids were in the D-stereoisomer form, unless otherwise noted.

[7] = Peptide storage stability by HPLC; format: physicochemical; settings: lyophilized, open air, room temperature, 4 months
Procedure: LK-513 (Ph(CH2)3CO-His-(D-4-Bip)-Arg-NHMe) was tested for stability and degradation over a storage period. The peptide was stored in a lyophilized form in open air at room temperature for 4 months. After 4 months, HPLC was performed on a test sample of the peptide in order to measure degradation, using standard methods (FIG. 1). […] Without being bound by theory, it is believed that the enhanced stability is a product of the absence of amide bonds between natural L-L-amino acids in the tripeptides and the existence of only one amide bond between natural amino acids in the tetrapeptides (Arg-Trp). Amide bonds between non-natural D- and natural L-amino acids are less prone to chemical and enzymatic hydrolysis, as evidenced by the FIG. 1. Further, the bulk and hydrophobicity of the X4 amino acid (D-Phe or a bulky hydrophobic analog thereof, such as D-4-Bip in the case of LK-513) shield the polar amid bonds of the peptide from chemical and enzymatic degradation.

[8] = tested on: tyrosinase; experiment: Stimulation of tyrosinase activity in cultured human melanocytes; format: cell-based
Procedure: Peptides were tested on cultured human melanocytes for their capacity for stimulating tyrosinase activity, the rate-limiting enzyme for melanin synthesis. Melanocytes were treated every other day, for a total of 6 days, with increasing concentrations of peptides. Medium containing H^3-tyrosine, the substrate for tyrosinase, was added to melanocytes 24 hours before the end of the 6-day treatment. Tyrosinase activity was measured by determining the amount of ^3H2O generated as […] is catalyzed by tyrosinase for melanin synthesis.
as §2

[9] = target: T4, MC1R; experiment: cAMP stimulation in heterologous cells expressing hMC1R; format: cell-based; parameters: expressed in transfected cells
Procedure: as §1

T4 sequence (Q01726 whole entry): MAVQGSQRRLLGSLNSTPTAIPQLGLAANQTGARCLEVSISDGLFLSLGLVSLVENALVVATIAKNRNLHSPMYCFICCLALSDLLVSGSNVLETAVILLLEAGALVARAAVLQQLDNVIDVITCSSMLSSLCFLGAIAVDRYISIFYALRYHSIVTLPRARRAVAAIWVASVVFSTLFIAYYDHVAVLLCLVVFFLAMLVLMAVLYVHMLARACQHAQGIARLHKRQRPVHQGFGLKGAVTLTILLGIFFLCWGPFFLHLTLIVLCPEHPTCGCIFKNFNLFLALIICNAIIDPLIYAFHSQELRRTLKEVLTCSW
T1 sequence (P33032 whole entry): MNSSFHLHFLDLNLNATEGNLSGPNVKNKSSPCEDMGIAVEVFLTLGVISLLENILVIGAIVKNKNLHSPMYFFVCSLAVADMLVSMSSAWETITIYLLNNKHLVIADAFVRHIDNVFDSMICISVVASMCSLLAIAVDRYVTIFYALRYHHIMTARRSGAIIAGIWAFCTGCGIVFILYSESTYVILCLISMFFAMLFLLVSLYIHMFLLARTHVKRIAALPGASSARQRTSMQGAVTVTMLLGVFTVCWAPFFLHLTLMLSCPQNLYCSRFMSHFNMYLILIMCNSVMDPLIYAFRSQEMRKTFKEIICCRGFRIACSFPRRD
T2 sequence (P41968 whole entry): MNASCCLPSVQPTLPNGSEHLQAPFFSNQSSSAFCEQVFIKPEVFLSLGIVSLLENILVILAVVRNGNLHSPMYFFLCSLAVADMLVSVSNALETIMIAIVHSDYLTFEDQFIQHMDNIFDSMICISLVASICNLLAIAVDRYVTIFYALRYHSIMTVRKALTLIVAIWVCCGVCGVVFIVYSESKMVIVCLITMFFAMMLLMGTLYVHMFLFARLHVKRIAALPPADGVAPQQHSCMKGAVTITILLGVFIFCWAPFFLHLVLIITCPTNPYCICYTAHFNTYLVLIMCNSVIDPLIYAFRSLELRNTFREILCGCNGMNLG
T3 sequence (P32245 whole entry): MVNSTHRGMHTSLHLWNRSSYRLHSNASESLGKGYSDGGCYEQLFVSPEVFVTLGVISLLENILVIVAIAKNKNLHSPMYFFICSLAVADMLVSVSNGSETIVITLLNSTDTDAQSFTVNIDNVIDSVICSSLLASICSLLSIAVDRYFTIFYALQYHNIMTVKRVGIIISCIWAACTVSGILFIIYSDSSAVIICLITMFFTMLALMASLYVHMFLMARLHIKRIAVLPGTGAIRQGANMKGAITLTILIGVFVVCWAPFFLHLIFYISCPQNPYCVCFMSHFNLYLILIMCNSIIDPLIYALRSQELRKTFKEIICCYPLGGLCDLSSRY

Row | Molecule | potency in human melanocytes [1] | MC1R selectivity and potency compared to tripeptide LK-394 [2] | binding of MC5R [3] | binding of MC3R [4] | binding of MC4R [5] | cAMP compared to 10 nM αMSH ([6]; cultured human melanocytes) | potency in stimulating cAMP formation, comparison ([6]; human melanocytes, 45 minutes of treatment) | stability and degradation on storage (HPLC) [7] | concentration at which significant stimulation of tyrosinase activity begins ([8]; human melanocytes, 6 days treatment) | TA compared to 10 nM αMSH ([8]; tyrosinase activity, cultured human melanocytes) | potency in activation of MC1R compared with MT-II [9] | HMC1R % MAX. ACTIVITY ([9]; cAMP, heterologous cells)
1 | trans-4-HOC6H4CH═CHCO-His-D-Phe-Arg-NH2 | less potent in human melanocytes | moderately increased MC1R selectivity and potency | – | – | – | – | – | – | – | – | – | –
2 | CNC(=O)[C@H](CCCNC(=N)N)NC(=O)[C@@H](Cc1ccc(-c2ccccc2)cc1)NC(=O)[C@H](Cc1c[nH]cn1)NC(=O)CCCc1ccccc1 [LK-513, Ph(CH2)3CO-His-(D-4-Bip)-Arg-NHMe] | – | – | do not bind | do not bind | do not bind | < | about ten times less potent than a-MSH; also recorded: about ten times less potent than α-MSH | highly stable and resistant to degradation, showing only a single HPLC peak; also recorded: highly stable and substantially free of degradation | 1 nM | < | about as potent as MT-II | 95%
